Data taken from US20020137929A1, “1 - (3-heterocyclylphenyl) isothiourea, -isourea, -guanidine and -amidine herbicidal agents” (Intellectual Property Department, BASF Aktiengesellschaft, priority 1998, published 2002).

Experiments:
CASOB (Sicklepod) = experiment: Postemergence herbicidal evaluation; assay type: in vivo, Cassia obtusifolia; details: postemergence
In short: (§1)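 Two-week seedlings sprayed postemergence at 40 psi; formulation: 1:1 acetone/water, 0.5% TWEEN 20; application ≈0.0156–0.500 kg/ha. Greenhouse grow-out, then 0–9 visual scoring at 4–5 weeks.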

[1] = tested on: CHEAL (Lambsquarters, Common); experiment: Postemergence herbicidal evaluation; assay type: in vivo, Chenopodium album; details: postemergence
In short: as §1

GALAP (Galium) = experiment: Postemergence herbicidal evaluation; assay type: in vivo, Galium aparine; details: postemergence
In short: as §1

ORYSAT (Rice, Tebonnet) [2] = experiment: Postemergence herbicidal evaluation; assay type: in vivo, Oryza sativa, (L.) Tebonnet; details: postemergence
In short: as §1

ZEAMX (Corn, Field) = experiment: Postemergence herbicidal evaluation; assay type: in vivo, Zea mays; details: postemergence
In short: as §1

AMBEL (Ragweed, Common) = experiment: Preemergence herbicidal evaluation; assay type: in vivo, Ambrosia artemisifolia; details: rated 4-5 weeks after treatment
In short: (§2)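 Preemergence soil application of compound, sprayed in aqueous acetone at rates equivalent to about 0.0156 to 0.500 kg per hectare onto freshly sown cups. Plant response was judged by eye on a 0-9 scale four to five weeks later.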

SETVI (Foxtail, Green) = experiment: Preemergence herbicidal evaluation; assay type: in vivo, Setaria viridis; details: rated 4-5 weeks after treatment
In short: as §2

[3] = tested on: GLXMAW (Soybean, Williams); experiment: Preemergence herbicidal evaluation; assay type: in vivo, Glycine max, (L.) Merr. cv Williams; details: rated 4-5 weeks after treatment
In short: as §2

ORYSAT (Rice, Tebonnet) [4] = experiment: Preemergence herbicidal evaluation; assay type: in vivo, Oryza sativa, (L.) Tebonnet; details: rated 4-5 weeks after treatment
In short: as §2

CYPSE (Flatsedge) [5] = experiment: Preemergence weed control under flooded paddy conditions; assay type: in vivo, Cyperus serotinus; details: rated 3-4 weeks after treatment
In short: (§3)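 Values are visual 0-9 scores against a control for a preemergence application into paddy flood water at about 0.0313 to 0.500 kg/ha. Greenhouse duration was three to four weeks.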

MOOVA (Monochoria) = experiment: as above; assay type: in vivo, Monochoria vaginalis; details: rated 3-4 weeks after treatment
In short: as §3

CYPIR (Rice Flatsedge) = experiment: Postemergence weed control under flooded paddy conditions; assay type: in vivo, Cyperus iria; details: postemergence weeds, rated 3 to 4 weeks after treatment
In short: (§4)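 With weeds 3 to 5 cm tall and rice at the 1.5 to 2.5 leaf stage, containers were flooded and water held 1.5 to 3 cm above soil. Compounds in 50/50 v/v aqueous/acetone went into the flood water at about 0.0313 to 0.500 kg/ha a.i. Effects were visually rated 0–9 against controls after three to four weeks in the greenhouse.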

CYPSE (Flatsedge) [6] = experiment: as above; assay type: in vivo, Cyperus serotinus; details: postemergence weeds, rated 3 to 4 weeks after treatment
In short: as §4

[7] = tested on: SAGPY (Arrowhead (Pygmaea)); experiment: as above; assay type: in vivo, Sagittaria pygmaea; details: postemergence weeds, rated 3 to 4 weeks after treatment
In short: as §4

SMILES: C=CCN1C(=O)C(CC(=O)OC(C)C)SC1=Nc1cc(-n2c(=O)cc(C(F)(F)F)n(C)c2=O)c(F)cc1Cl (stereo not shown) [Compound 66, Isopropyl 3-allyl-2-{{2-chloro-5-[3,6-dihydro-3-methyl-2,6-dioxo-4-(trifluoromethyl)-1(2H)-pyrimidinyl]-4-fluorophenyl}imino}-4-oxo-5-thiazolidineacetate]
- CASOB herbicidal rating (CASOB (Sicklepod); rate 0.0158 kg/ha): 0.0
- CASOB herbicidal rating (CASOB (Sicklepod); rate 0.0313 kg/ha): 0.0
- CASOB herbicidal rating (CASOB (Sicklepod); rate 0.0625 kg/ha): 3.0
- CASOB herbicidal rating (CASOB (Sicklepod); rate 0.1250 kg/ha): 6.0
- CHEAL herbicidal rating ([1]; rate 0.0158 kg/ha): 5.0
- CHEAL herbicidal rating ([1]; rate 0.0313 kg/ha): 9.0
- CHEAL herbicidal rating ([1]; rate 0.0625 kg/ha): 9.0
- CHEAL herbicidal rating ([1]; rate 0.1250 kg/ha): 9.0
- GALAP herbicidal rating (GALAP (Galium); rate 0.0158 kg/ha): 2.0
- GALAP herbicidal rating (GALAP (Galium); rate 0.0313 kg/ha): 3.0
- GALAP herbicidal rating (GALAP (Galium); rate 0.0625 kg/ha): 4.0
- GALAP herbicidal rating (GALAP (Galium); rate 0.1250 kg/ha): 9.0
- ORYSAT herbicidal rating (ORYSAT (Rice, Tebonnet) [2]; rate 0.0158 kg/ha): 3.5
- ORYSAT herbicidal rating (ORYSAT (Rice, Tebonnet) [2]; rate 0.0313 kg/ha): 5.0
- ORYSAT herbicidal rating (ORYSAT (Rice, Tebonnet) [2]; rate 0.0625 kg/ha): 5.5
- ORYSAT herbicidal rating (ORYSAT (Rice, Tebonnet) [2]; rate 0.1250 kg/ha): 5.5
- ZEAMX herbicidal rating (ZEAMX (Corn, Field); rate 0.0158 kg/ha): 7.0
- ZEAMX herbicidal rating (ZEAMX (Corn, Field); rate 0.0313 kg/ha): 8.5
- ZEAMX herbicidal rating (ZEAMX (Corn, Field); rate 0.0625 kg/ha): 9.0
- ZEAMX herbicidal rating (ZEAMX (Corn, Field); rate 0.1250 kg/ha): 9.0
- Preemergence herbicidal rating AMBEL (AMBEL (Ragweed, Common); rate 0.0156 kg/ha): 0.5
- Preemergence herbicidal rating AMBEL (AMBEL (Ragweed, Common); rate 0.0313 kg/ha): 1.0
- Preemergence herbicidal rating AMBEL (AMBEL (Ragweed, Common); rate 0.0625 kg/ha): 3.0
- Preemergence herbicidal rating AMBEL (AMBEL (Ragweed, Common); rate 0.1250 kg/ha): 9.0
- Preemergence herbicidal rating AMBEL (AMBEL (Ragweed, Common); rate 0.2500 kg/ha): 9.0
- Preemergence herbicidal rating AMBEL (AMBEL (Ragweed, Common); rate 0.5000 kg/ha): 9.0
- Preemergence herbicidal rating SETVI (SETVI (Foxtail, Green); rate 0.0156 kg/ha): 0.0
- Preemergence herbicidal rating SETVI (SETVI (Foxtail, Green); rate 0.0313 kg/ha): 0.5
- Preemergence herbicidal rating SETVI (SETVI (Foxtail, Green); rate 0.0625 kg/ha): 0.5
- Preemergence herbicidal rating SETVI (SETVI (Foxtail, Green); rate 0.1250 kg/ha): 6.0
- Preemergence herbicidal rating SETVI (SETVI (Foxtail, Green); rate 0.2500 kg/ha): 7.5
- Preemergence herbicidal rating SETVI (SETVI (Foxtail, Green); rate 0.5000 kg/ha): 9.0
- Preemergence herbicidal rating GLXMAW ([3]; rate 0.0156 kg/ha): 0.0
- Preemergence herbicidal rating GLXMAW ([3]; rate 0.0313 kg/ha): 0.0
- Preemergence herbicidal rating GLXMAW ([3]; rate 0.0625 kg/ha): 0.5
- Preemergence herbicidal rating GLXMAW ([3]; rate 0.1250 kg/ha): 0.5
- Preemergence herbicidal rating GLXMAW ([3]; rate 0.2500 kg/ha): 4.5
- Preemergence herbicidal rating GLXMAW ([3]; rate 0.5000 kg/ha): 9.0
- Preemergence herbicidal rating ORYSAT (ORYSAT (Rice, Tebonnet) [4]; rate 0.0156 kg/ha): 0.0
- Preemergence herbicidal rating ORYSAT (ORYSAT (Rice, Tebonnet) [4]; rate 0.0313 kg/ha): 0.0
- Preemergence herbicidal rating ORYSAT (ORYSAT (Rice, Tebonnet) [4]; rate 0.0625 kg/ha): 0.5
- Preemergence herbicidal rating ORYSAT (ORYSAT (Rice, Tebonnet) [4]; rate 0.1250 kg/ha): 0.5
- Preemergence herbicidal rating ORYSAT (ORYSAT (Rice, Tebonnet) [4]; rate 0.2500 kg/ha): 2.5
- Preemergence herbicidal rating ORYSAT (ORYSAT (Rice, Tebonnet) [4]; rate 0.5000 kg/ha): 8.0
- CYPSE herbicidal effect rating (CYPSE (Flatsedge) [5]; 0.0313 kg/ha): 0.0
- CYPSE herbicidal effect rating (CYPSE (Flatsedge) [5]; 0.0625 kg/ha): 0.0
- CYPSE herbicidal effect rating (CYPSE (Flatsedge) [5]; 0.1250 kg/ha): 4.0
- CYPSE herbicidal effect rating (CYPSE (Flatsedge) [5]; 0.2500 kg/ha): 4.0
- MOOVA herbicidal effect rating (MOOVA (Monochoria); 0.0313 kg/ha): 9.0
- MOOVA herbicidal effect rating (MOOVA (Monochoria); 0.0625 kg/ha): 9.0
- MOOVA herbicidal effect rating (MOOVA (Monochoria); 0.1250 kg/ha): 9.0
- MOOVA herbicidal effect rating (MOOVA (Monochoria); 0.2500 kg/ha): 9.0
- Herbicidal rating CYPIR (CYPIR (Rice Flatsedge); Rate 0.0313 kg/ha): 6.0
- Herbicidal rating CYPIR (CYPIR (Rice Flatsedge); Rate 0.0625 kg/ha): 6.0
- Herbicidal rating CYPIR (CYPIR (Rice Flatsedge); Rate 0.1250 kg/ha): 7.0
- Herbicidal rating CYPIR (CYPIR (Rice Flatsedge); Rate 0.2500 kg/ha): 7.0
- Herbicidal rating CYPSE (CYPSE (Flatsedge) [6]; Rate 0.0313 kg/ha): 0.0
- Herbicidal rating CYPSE (CYPSE (Flatsedge) [6]; Rate 0.0625 kg/ha): 0.0
- Herbicidal rating CYPSE (CYPSE (Flatsedge) [6]; Rate 0.1250 kg/ha): 4.0
- Herbicidal rating CYPSE (CYPSE (Flatsedge) [6]; Rate 0.2500 kg/ha): 4.0
- Herbicidal rating SAGPY ([7]; Rate 0.0313 kg/ha): 3.0
- Herbicidal rating SAGPY ([7]; Rate 0.0625 kg/ha): 4.0
- Herbicidal rating SAGPY ([7]; Rate 0.1250 kg/ha): 4.0
- Herbicidal rating SAGPY ([7]; Rate 0.2500 kg/ha): 4.0
